Measured values reported in patent US20230114753A1, “USE OF A GROUP OF MARKERS FOR DIAGNOSING AND ADJUSTING TREATMENT OF PRIMARY BILIARY CHOLANGITIS, PHARMACEUTICAL COMPOSITION AND SOLID DOSAGE FORM FOR TREATING PRIMARY BILIARY CHOLANGITIS” (MILI HEALTHCARE TRADE DMCC, LIMITED LIABILITY COMPANY, priority 2020, published 2023).
Where “and” joins values, the source holds several entries; their conditions need not be identical. Equal entries are not always repeated. Where two headings read alike, the source gives them in different places.

How the values were obtained:
[1] = Pharmacokinetics of obeticholic acid taken orally, in a monocomposition or with UDCA; format: in vivo
Description: A study of the pharmacokinetics of obeticholic acid in a monocom position and as part of a composition with ursodeoxycholic acid when taken orally was conducted.

patients with PBC = experiment: Effectiveness of the PBC treatment using various regimens (positive response, Paris2 system, 12 months); format: in vivo, human; details: Paris2 criteria
Description: A double-blind clinical study on the effectiveness of the combined pharmaceutical composition comprising UDCA and OCA compared to UDCA was conducted.
To study the effectiveness, the tablet embodiments No. 15 and No. 16 were used.
A study on the effectiveness of the various treatment regimens for the patients with PBC was conducted. A total of three treatment regimens were used in the study: • 1) UDCA monocomposition at a dose of 15 mg/kg/day. • 2) Combined pharmaceutical composition in the pharmaceutical form with the modified release and at a dose of UDCA 15 mg/kg+OCA 5 mg per day. • 3) Combined pharmaceutical composition in the pharmaceutical form with the modified release and at a dose of UDCA 15 mg/kg+OCA 10 mg per day.
The studies were carried out for 12 months, during which the quality of the treatment was assessed by measuring biochemical and molecular biological markers (see above).
The evaluation of the effectiveness of the treatment was carried out on the basis of the Paris2 system, according to which the criteria for a satisfactory treatment are: • ALT level≤3-fold upper limit of normal (ULN); • AST level≤2-fold ULN; • normal bilirubin level.

[2] = test system: patients diagnosed with PBC; experiment: Double-blind clinical study: biochemical and molecular markers in blood of PBC patients treated with UDCA or UDCA+OCA; format: in vivo, human; details: blood plasma
Description: To determine the concentration level values of the markers in the blood serum, chemiluminescence and enzyme immunoassay methods were used.
A double-blind clinical study was conducted on the effectiveness of the combined pharmaceutical composition comprising UDCA and OCA compared with the monocomposition comprising only UDCA for the patients with the following concentration level values of the claimed group of the markers (corresponding to 1 Stage of PBC): • IL-6—at least 10%; • Nf-kB—at least 5%; • MCP-1/CCL2—at least 5%; • Bcl-2—at least 5%; • TNF-α—at least 12%; • MDA—at least 0.5%.
The patients diagnosed with PBC were divided into 3 groups depending on the treatment regimen:
2) Group UDCA 15 mg/kg+OCA 5 mg;
3) Group UDCA 15 mg/kg+OCA 10 mg.
After the treatment, venous blood samples were taken from the patients and the concentrations of biochemical and molecular markers were determined.
As markers of the treatment effectiveness, two groups of markers were used: biochemical and molecular biological.
The first group included: ALT, AST, GGT (Gamma-glutamyl Transferase), AP and total bilirubin.
The second group included: TNF-α, IL-6, Nf-kB, MCP-1/CCL2, BCL-2, and MDA.

[3] = month 6 of treatment, listed as UDCA 15 mg/kg
[4] = month 12 of treatment, listed as UDCA 15 mg/kg

CC[C@H]1[C@@H](O)[C@@H]2[C@H](CC[C@]3(C)[C@@H]([C@H](C)CCC(=O)O)CC[C@@H]23)[C@@]2(C)CC[C@@H](O)C[C@@H]12 [OCA, obeticholic acid]
AUC(0-t) ([1]; in vivo, po): 34.8 ng·h/mL
bioavailability ([1]; in vivo, po, read-out: Bioavailability): 89%
Cmax ([1]; in vivo, po, read-out: Cmax): 16.7 ng/mL
Tmax ([1]; listed as OCA 5 mg): 0.667 h
AUCt ([1]; listed as OCA 10 mg): 66.1 ng·h/mL
Cmax ([1]; listed as OCA 10 mg): 26.4 ng/mL
Tmax ([1]; listed as OCA 10 mg): 1.5 h
bioavailability ([1]; listed as OCA 10 mg): 91%

C[C@H](CCC(=O)O)[C@H]1CC[C@H]2[C@@H]3[C@@H](O)C[C@@H]4C[C@H](O)CC[C@]4(C)[C@H]3CC[C@]12C [UDCA, ursodeoxycholic acid]
Number of patients with positive response to treatment (%) (patients with PBC): 58.82%
Number of patients with positive response to treatment (number) (patients with PBC; groups of 68, 65, 63 patients): 40
ALT ([2]; month 1 of treatment): 80.4 U/l
ALT, in % of the initial value ([2]; month 1 of treatment): 97.22%
AP ([2]; month 1 of treatment): 352.5 U/l
AP, in % of the initial value ([2]; month 1 of treatment): 97.20%
AST ([2]; month 1 of treatment): 100.7 U/l
AST, in % of the initial value ([2]; month 1 of treatment): 95.72%
Bcl-2 ([2]; month 1 of treatment): 0.68 U/ml
Bcl-2, in % of the initial value ([2]; month 1 of treatment): 94.44%
GGT ([2]; month 1 of treatment): 198 U/l
GGT, in % of the initial value ([2]; month 1 of treatment): 95.42%
IL-6 ([2]; month 1 of treatment): 23.35 pg/mL
IL-6, in % of the initial value ([2]; month 1 of treatment): 99.19%
MCP-1/CCL2 ([2]; month 1 of treatment): 465.4 pg/mL
MCP-1/CCL2, in % of the initial value ([2]; month 1 of treatment): 99.34%
MDA ([2]; month 1 of treatment): 22.87 nmol/mL
MDA, in % of the initial value ([2]; month 1 of treatment): 99.09%
Nf-kB ([2]; month 1 of treatment): 64.4 pg/mL
Nf-kB, in % of the initial value ([2]; month 1 of treatment): 98.32%
TNF-α ([2]; month 1 of treatment): 0.33 ng/mL
TNF-α, in % of the initial value ([2]; month 1 of treatment): 100.00%
Total bilirubin ([2]; month 1 of treatment): 39.8 µmol/L
Total bilirubin, in % of the initial value ([2]; month 1 of treatment): 96.18%
ALT ([2]; month 3 of treatment): 74.81 U/l
ALT, in % of the initial value ([2]; month 3 of treatment): 90.46%
AP ([2]; month 3 of treatment): 290.6 U/l
AP, in % of the initial value ([2]; month 3 of treatment): 88.10%
AST ([2]; month 3 of treatment): 87.3 U/l
AST, in % of the initial value ([2]; month 3 of treatment): 82.98%
Bcl-2 ([2]; month 3 of treatment): 0.62 U/ml
Bcl-2, in % of the initial value ([2]; month 3 of treatment): 86.11%
GGT ([2]; month 3 of treatment): 178.8 U/l
GGT, in % of the initial value ([2]; month 3 of treatment): 86.17%
IL-6 ([2]; month 3 of treatment): 22.95 pg/mL
IL-6, in % of the initial value ([2]; month 3 of treatment): 97.49%
MCP-1/CCL2 ([2]; month 3 of treatment): 448 pg/mL
MCP-1/CCL2, in % of the initial value ([2]; month 3 of treatment): 95.62%
MDA ([2]; month 3 of treatment): 22.54 nmol/mL
MDA, in % of the initial value ([2]; month 3 of treatment): 97.66%
Nf-kB ([2]; month 3 of treatment): 64.1 pg/mL
Nf-kB, in % of the initial value ([2]; month 3 of treatment): 97.86%
TNF-α ([2]; month 3 of treatment): 0.324 ng/mL
TNF-α, in % of the initial value ([2]; month 3 of treatment): 98.18%
Total bilirubin ([2]; month 3 of treatment): 33.8 µmol/L
Total bilirubin, in % of the initial value ([2]; month 3 of treatment): 87.50%
ALT, in % of the initial value [2, 3]: 67.32% and 82.47%
AP, in % of the initial value [2, 3]: 63.93% and 74.45%
AST, in % of the initial value [2, 3]: 67.24% and 77.38%
Bcl-2, in % of the initial value [2, 3]: 95.24% and 80.56%
GGT, in % of the initial value [2, 3]: 65.16% and 75.28%
IL-6, in % of the initial value [2, 3]: 85.81% and 93.46%
MCP-1/CCL2, in % of the initial value [2, 3]: 88.00% and 92.08%
MDA, in % of the initial value [2, 3]: 95.36% and 96.92%
Nf-kB, in % of the initial value [2, 3]: 91.91% and 95.88%
TNF-α, in % of the initial value [2, 3]: 87.88% and 95.45%
ALT ([2]; month 9 of treatment): 62.47 U/l
ALT, in % of the initial value ([2]; month 9 of treatment): 75.54%
AP ([2]; month 9 of treatment): 247.5 U/l
AP, in % of the initial value ([2]; month 9 of treatment): 69.18%
AST ([2]; month 9 of treatment): 74.5 U/l
AST, in % of the initial value ([2]; month 9 of treatment): 70.82%
Bcl-2 ([2]; month 9 of treatment): 0.54 U/ml
Bcl-2, in % of the initial value ([2]; month 9 of treatment): 75.00%
GGT ([2]; month 9 of treatment): 141.5 U/l
GGT, in % of the initial value ([2]; month 9 of treatment): 68.19%
IL-6 ([2]; month 9 of treatment): 21.48 pg/mL
IL-6, in % of the initial value ([2]; month 9 of treatment): 91.25%
MCP-1/CCL2 ([2]; month 9 of treatment): 419.7 pg/mL
MCP-1/CCL2, in % of the initial value ([2]; month 9 of treatment): 89.58%
MDA ([2]; month 9 of treatment): 22.12 nmol/mL
MDA, in % of the initial value ([2]; month 9 of treatment): 95.84%
Nf-kB ([2]; month 9 of treatment): 61.4 pg/mL
Nf-kB, in % of the initial value ([2]; month 9 of treatment): 93.74%
TNF-α ([2]; month 9 of treatment): 0.3 ng/mL
TNF-α, in % of the initial value ([2]; month 9 of treatment): 90.91%
Total bilirubin ([2]; month 9 of treatment): 28.03 µmol/L
Total bilirubin, in % of the initial value ([2]; month 9 of treatment): 70.49%
ALT ([2]; month 12 of treatment): 55.67 U/l
ALT, in % of the initial value ([2]; month 12 of treatment): 67.32%
AP ([2]; month 12 of treatment): 235.36 U/l
AP, in % of the initial value ([2]; month 12 of treatment): 63.93%
AST ([2]; month 12 of treatment): 70.73 U/l
Bcl-2 ([2]; month 12 of treatment): 0.52 U/ml
GGT ([2]; month 12 of treatment): 135.2 U/l
GGT, in % of the initial value ([2]; month 12 of treatment): 65.16%
IL-6 ([2]; month 12 of treatment): 20.2 pg/mL
IL-6, in % of the initial value ([2]; month 12 of treatment): 85.81%
MCP-1/CCL2 ([2]; month 12 of treatment): 412.3 pg/mL
MCP-1/CCL2, in % of the initial value ([2]; month 12 of treatment): 88.00%
MDA ([2]; month 12 of treatment): 22.01 nmol/mL
MDA, in % of the initial value ([2]; month 12 of treatment): 95.36%
Nf-kB ([2]; month 12 of treatment): 60.2 pg/mL
Nf-kB, in % of the initial value ([2]; month 12 of treatment): 91.91%
TNF-α ([2]; month 12 of treatment): 0.29 ng/mL
TNF-α, in % of the initial value ([2]; month 12 of treatment): 87.88%
Total bilirubin ([2]; month 12 of treatment): 26.03 µmol/L
Total bilirubin, in % of the initial value ([2]; month 12 of treatment): 64.58%
AST, in % of the initial value [2, 4]: 67.24% and 67.23%
Bcl-2, in % of the initial value [2, 4]: 72% and 72.22%
